From patent US10772902B2, “Use of floridoside or isethionic acid to potentiate antimicrobial activity of antibiotics” (OCELAND BIOLOGICALS LIMITED, priority 2016, dated 2020)
Converted amounts (≈) assume the structure as drawn.

Key:
[1] = system: S. Enteritidis; experiment: Antimicrobial effect of seaweed pure compounds, broth inoculation method (log CFU/mL); format: cell-based, Salmonella Enteritidis; conditions: 15 μg/mL of compound, no antibiotic; for colony count of S. Enteritidis, log CFU: control log CFU 6.5
Experimental: These pure compounds were tested in vitro against S. Enteritidis using the broth inoculation method of Example 2, but without the tetracycline or streptomycin. Fifteen (15) μg/mL of each compound was added to TSA broth and inoculated with S. Enteritidis.

[2] = system: S. Enteritidis; experiment: Combined effect of seaweed extract and antibiotics, liquid culture inhibition test (CFU); format: cell-based, Salmonella Enteritidis
Experimental: Seaweed water extracts (SWE) were prepared by grinding sun dried seaweeds to fine powder using a coffee grinder, and adding 5 grams of algal powder to 20 mL distilled water (DW). The resulting slurry was incubated at 50° C. for 3 hours under shaking condition at 140 rpm using an orbital shaker (New Brunswick Scientific, Enfield, Conn., US). The slurry was then centrifuged at 10,000 g for 15 min. The supernatant was recovered and the residual pellet was re-extracted three times using the same procedure. The resulting supernatants were pooled and freeze dried (Thermo Fisher Scientific Inc., US). Dilutions of SWE were prepared by dissolving 0.2, 0.4, 0.8, 1 and 2 g of soluble freeze dried extract in 1 mL distilled water. These dilutions were used as working concentration in all the experiments. The combined effect of the C. crispus (CC) extract or the S. gaudichaudii (SG) extract, with tetracycline or streptomycin (at MIC25 or MIC50), was evaluated in vitro by liquid culture inhibition test. To 10 mL of tryptic soy broth, seaweed extract (SWE) and 100 μL Salmonella Enteritidis (OD600=0.1, 1×10^8 cells/mL) were added. The final concentrations of seaweed extracts in 10 mL with tryptic soy broth were 200, 400, or 800 μg/mL. Culture tubes were incubated at 37° C. for 24 hrs. The growth of S. Enteritidis was determined by plating the serially diluted culture on TSA plates to enumerate the colony forming units (CFU).

[3] = system: S. Enteritidis; experiment: Minimum inhibitory concentrations (MIC25, MIC50) of antibiotics, broth inoculation method; format: cell-based; conditions: Salmonella enterica, 37° C., 16-18 h, inoculum 1×10^8 cells/mL
Experimental: Nalidixic acid resistant strain of S. Enteritidis was provided by Laboratory for Foodborne Zoonoses, Public Health Agency of Canada, Guelph, Ontario. Half strength tryptic soy agar (TSA) medium (Difco) supplemented with nalidixic acid at a concentration of 32 μg/mL was used for bacterial growth. Tetracycline and Streptomycin were obtained from Sigma Aldrich (Oakville, Ontario, Canada). Stock solutions of antibiotics and seaweed extract were prepared and stored at −20° C. Other chemicals and media were purchased from Difco Laboratories, Baltimore, Md., USA. Red seaweeds (Chondrus crispus, and Sarcodiotheca gaudichaudii) were provided by Acadian Seaplants Limited, Nova Scotia, Canada.
The susceptibility of S. Enteritidis to tetracycline and streptomycin was tested by broth inoculation method. The testing of MICs (MIC25 and MIC50) was performed in triplicates with an inoculum of 1×10^8 cells/mL. […] MATLAB R2010a (curve fitting tool) was used to determine minimum inhibitory concentrations (MIC) of the antibiotics.

Structure (SMILES): OCC(CO)O[C@H]1O[C@H](CO)[C@H](O)[C@H](O)[C@H]1O [Floridoside, 2-O-α-D-galactopyranosylglycerol]
- colony count of S. Enteritidis, log CFU [1]: 6.21 log CFU

Structure (SMILES): O=S(=O)(O)CCO [isethionic acid, Isethionic acid]
- colony count of S. Enteritidis, log CFU [1]: 6.33 log CFU

Structure (SMILES): CN(C)[C@@H]1C(O)=C(C(N)=O)C(=O)[C@@]2(O)C(O)=C3C(=O)c4c(O)cccc4[C@@](C)(O)[C@H]3C[C@@H]12 [tetracycline]
- growth of S. Enteritidis, log CFU ([2]; MIC controls (tetracycline without SG extract)): 5.5 log CFU
- growth of S. Enteritidis, log CFU ([2]; tetracycline alone at MIC25, 24 hrs): 6.1 log CFU
- growth of S. Enteritidis, log CFU ([2]; tetracycline alone at MIC50, 24 hrs): 5.5 log CFU
- MIC [3]: ≤ 7.9 µg/mL
- MIC50 [3]: ≤ 4 µg/mL

Structure (SMILES): [H]/N=C(/N)N[C@H]1[C@H](O)[C@@H](O)[C@H](O[C@@H]2O[C@@H](C)[C@](O)(C=O)[C@H]2O[C@@H]2O[C@@H](CO)[C@H](O)[C@@H](O)[C@@H]2NC)[C@@H](N/C(N)=N\[H])[C@@H]1O [Streptomycin]
- MIC [3]: 1 µg/mL (≈ 1.72 µM)
- MIC50 [3]: 1.63 µg/mL (≈ 2.8 µM)

Structure (SMILES): NC(=O)NCCC[C@H](N)C(=O)O [citrulline]
- CFU of S. Enteritidis compared to control [1]: no statistically significant difference

Structure (SMILES): NCCS(=O)(=O)O [taurine]
- CFU of S. Enteritidis compared to control [1]: no statistically significant difference
